From BindingDB's records for doi:10.1021/jm00398a002 (University of Kansas, 1988)

Target: Adenosylhomocysteinase (Bos taurus)
Experiment: Time course of inactivation of bovine liver S-adenosyl-homocysteine hydrolase

| Ki | SMILES |
| --- | --- |
| 41 nM | Nc1ncnc2c1ncn2[C@@H]1C=C[C@@H](O)[C@H]1O |
| 35 nM | Nc1nccc2c1ncn2C1C=C[C@@H](O)[C@H]1O (some centres not stated) |
